# According to patent US8536183B2, “3-pyridylcarbonyl-piperazinylsulfonyl derivatives” (Convergence Pharmaceuticals Limited, priority 2008, dated 2013):
# Where a name gives a salt, the structure may show the parent alone.
# Biological target: T1, hCaV2.2 (Homo sapiens, UniProt Q00975)
# T1 construct: expressed in transfected cells; plasmids pCIN5-hCaV2.2, pCIH-hCaV β3, pCIP-α2δ1
# Test: hCaV2.2 assay, IonWorks planar array electrophysiology in stably transfected HEK293 cells
# Assay type: cell-based
# Conditions: current elicited by the 1st depolarising pulse inhibited by 50%; HEK293 cells expressing human CaV2.2 alpha/beta3/alpha2delta1; read-out: mean pIC50 (tonic pIC50) (converted)
# Description: Compounds of the invention may be tested for in vitro biological activity in the hCaV2.2 assay in accordance with the following studies:
# Stable cell lines expressing the human CaV2.2 α (als) subunit, along with the human […] and α2δ1 auxiliary subunits were created following sequential transfection and selection of human embryonic kidney (HEK293) cells. HEK293 cells were cultured in Dulbecco's modified Eagles media/F12 media (Invitrogen, Cat #041-95750V) containing 10% foetal bovine serum, with added L-glutamine (2 mM; Invitrogen, Cat #25030-024) and non-essential amino acids (5%; Invitrogen, Cat #11140-035). Initially HEK293 cells were transfected with two plasmid vectors for expression of the hCaV2.2 α subunit (pCIN5-hCaV2.2 which carries a neomycin resistance marker) and the hCaV β3 subunit (pCIH-hCaV β3 which carries a hygromycin resistance marker). Clonal cell lines were isolated following selection in media supplemented with 0.4 mg ml^−1 Geneticin G418 (Invitrogen, Cat #10131-027) and 0.1 mg ml^1 hygromycin (Invitrogen, Cat #10687-010). These clonal cell lines were assessed for Cav2.2α/β3-mediated current expression using the IonWorks planar array electrophysiology technology (described below). A clonal line was identified that gave a reasonable level of functional Cav2.2α/β3 current expression. This cell line was transfected with a plasmid vector for expression of the human […] subunit (pCIP-α2δ1 which carries a puromycin resistance marker) and clonal cell lines isolated following selection in media containing 0.62 μg ml^−1 puromycin (Sigma, Cat #P-7255), in addition to 0.4 mg ml^−1 Geneticin G418 and 0.1 mg ml^−1 hygromycin. Several cell lines were identified that gave robust levels of Cav2.2α/β3/α2δ1-mediated current expression and one of these was selected for compound profiling. Expression of all three subunits within this cell line was continuously maintained by the inclusion of G418 (0.4 mg ml^−1), hygromycin (0.1 mg ml^−1) and puromycin (0.62 μg ml^−1). Cells were maintained at 37° C. in a humidified environment containing 5% CO2 in air. Cells were liberated from the T175 culture flasks for passage and harvesting using TrpLE (Invitrogen, Cat #12604-013).
# Cells were grown to 30-60% confluence in T175 flasks and maintained at 30° C. for 24 hrs prior to recording. Cells were lifted by removing the growth media, washing with Ca^2+ free PBS (Invitrogen, Cat #14190-094) and incubating with 3 ml of warmed (37° C.) TrpLE (Invitrogen, Cat #12604-013) for 6 minutes. Lifted cells were suspended in 10 ml of extracellular buffer. Cell suspension was then placed into a 15 ml tube and centrifuged for 2 minutes at 700 rpm. After centrifugation, the supernatant was removed and the cell pellet was resuspended in 4.5 ml of extracellular solution.
# Currents were recorded at room temperature (21-23° C.) using the IonWorks planar array electrophysiology technology (Molecular Devices Corp.). Stimulation protocols and data acquisition were carried out using a microcomputer (Dell Pentium 4). In order to determine planar electrode hole resistances (Rp), a 10 mV, 160 ms potential difference was applied across each hole. These measurements were performed before cell addition. After cell addition a seal test was performed prior to antibiotic (amphotericin) circulation to achieve intracellular access. Leak subtraction was conducted in all experiments by applying a 160 ms hyperpolarizing (10 mV) prepulse 200 ms before the test pulses to measure leak conductance. Test pulses stepping from the holding potential (VH) of −90 mV to +10 mV were applied for 20 ms and repeated 10 times at a frequency of 10 Hz. In all experiments, the test pulse protocol was performed in the absence (pre-read) and presence (post-read) of a compound. Pre- and post-reads were separated by a compound addition followed by a 3-3.5 min incubation.
# The intracellular solution contained the following (in mM): K-gluconate 120, KCl 20 mM, MgCl2 5, EGTA 5, HEPES 10, adjusted to pH 7.3. […]
# T1 sequence (Q00975 whole entry): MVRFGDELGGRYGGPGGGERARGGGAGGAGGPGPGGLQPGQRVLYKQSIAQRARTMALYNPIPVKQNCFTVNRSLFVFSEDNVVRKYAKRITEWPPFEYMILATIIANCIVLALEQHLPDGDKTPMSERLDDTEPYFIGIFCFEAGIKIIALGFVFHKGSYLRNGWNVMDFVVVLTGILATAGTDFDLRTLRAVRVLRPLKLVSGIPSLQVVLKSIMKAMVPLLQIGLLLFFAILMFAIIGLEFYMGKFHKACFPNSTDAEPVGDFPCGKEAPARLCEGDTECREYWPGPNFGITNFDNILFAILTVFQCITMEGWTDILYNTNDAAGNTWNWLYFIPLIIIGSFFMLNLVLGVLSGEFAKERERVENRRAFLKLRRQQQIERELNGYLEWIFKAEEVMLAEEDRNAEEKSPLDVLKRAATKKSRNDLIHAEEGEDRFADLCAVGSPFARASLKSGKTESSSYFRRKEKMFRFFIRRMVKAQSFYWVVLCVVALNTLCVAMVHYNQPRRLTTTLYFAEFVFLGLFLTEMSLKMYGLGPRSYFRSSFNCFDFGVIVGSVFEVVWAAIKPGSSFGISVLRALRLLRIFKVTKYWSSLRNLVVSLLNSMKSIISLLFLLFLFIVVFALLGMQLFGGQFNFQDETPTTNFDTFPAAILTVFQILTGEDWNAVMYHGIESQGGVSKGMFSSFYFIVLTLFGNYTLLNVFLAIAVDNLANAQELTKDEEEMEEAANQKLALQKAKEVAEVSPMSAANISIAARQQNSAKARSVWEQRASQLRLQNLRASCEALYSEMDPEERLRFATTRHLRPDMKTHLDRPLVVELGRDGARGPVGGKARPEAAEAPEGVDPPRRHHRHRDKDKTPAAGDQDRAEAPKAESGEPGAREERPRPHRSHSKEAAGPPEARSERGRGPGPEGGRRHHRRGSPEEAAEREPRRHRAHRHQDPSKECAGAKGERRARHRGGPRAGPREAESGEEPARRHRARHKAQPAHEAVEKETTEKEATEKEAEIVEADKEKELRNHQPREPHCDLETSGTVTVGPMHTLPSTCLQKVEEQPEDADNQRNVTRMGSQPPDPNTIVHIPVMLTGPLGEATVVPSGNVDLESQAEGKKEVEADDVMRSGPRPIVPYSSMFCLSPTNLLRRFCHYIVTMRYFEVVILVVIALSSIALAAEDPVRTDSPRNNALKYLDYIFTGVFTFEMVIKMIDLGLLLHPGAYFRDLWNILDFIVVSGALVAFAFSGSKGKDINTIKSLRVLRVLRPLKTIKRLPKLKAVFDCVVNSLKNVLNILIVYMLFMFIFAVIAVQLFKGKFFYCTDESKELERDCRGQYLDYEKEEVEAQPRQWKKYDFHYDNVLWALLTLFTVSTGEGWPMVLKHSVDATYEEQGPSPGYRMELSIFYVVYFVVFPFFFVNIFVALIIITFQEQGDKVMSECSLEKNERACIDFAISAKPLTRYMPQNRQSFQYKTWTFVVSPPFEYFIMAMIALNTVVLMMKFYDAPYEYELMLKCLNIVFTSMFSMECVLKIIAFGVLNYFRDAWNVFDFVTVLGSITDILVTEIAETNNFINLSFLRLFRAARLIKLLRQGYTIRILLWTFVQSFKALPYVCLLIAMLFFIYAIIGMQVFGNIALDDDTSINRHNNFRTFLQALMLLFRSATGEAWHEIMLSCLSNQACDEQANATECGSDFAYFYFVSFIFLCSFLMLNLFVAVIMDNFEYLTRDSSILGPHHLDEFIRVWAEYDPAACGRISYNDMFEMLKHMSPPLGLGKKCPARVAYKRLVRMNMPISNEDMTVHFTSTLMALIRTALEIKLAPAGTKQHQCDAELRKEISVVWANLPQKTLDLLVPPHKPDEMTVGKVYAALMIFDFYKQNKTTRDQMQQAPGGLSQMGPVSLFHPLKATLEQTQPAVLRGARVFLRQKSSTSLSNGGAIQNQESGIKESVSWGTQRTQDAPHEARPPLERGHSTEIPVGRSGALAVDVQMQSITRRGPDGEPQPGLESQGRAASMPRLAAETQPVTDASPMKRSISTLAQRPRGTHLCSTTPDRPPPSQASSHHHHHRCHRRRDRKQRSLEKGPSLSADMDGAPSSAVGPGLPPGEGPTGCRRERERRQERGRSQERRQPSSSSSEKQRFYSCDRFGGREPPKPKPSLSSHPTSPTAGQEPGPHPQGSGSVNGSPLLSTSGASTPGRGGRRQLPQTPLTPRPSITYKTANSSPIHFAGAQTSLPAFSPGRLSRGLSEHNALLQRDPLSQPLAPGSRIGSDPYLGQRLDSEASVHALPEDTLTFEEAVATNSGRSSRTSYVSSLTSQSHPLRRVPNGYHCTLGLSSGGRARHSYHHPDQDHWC
row,IC50,SMILES
1,≥ 31.6 µM,"CN(C)c1ccc(C(=O)N2CCN(S(=O)(=O)c3ccc(C(F)(F)F)cc3)CC2)cn1 [Example 57, N,N-dimethyl-5-[(4-{[4-(trifluoromethyl)phenyl]sulfonyl}-1-piperazinyl)carbonyl]-2-pyridinamine]"
2,≥ 31.6 µM,"Nc1ccc(C(=O)N2CCN(S(=O)(=O)c3ccc(C(F)(F)F)cc3)CC2)cn1 [Example 66, 5-[(4-{[4-(trifluoromethyl)phenyl]sulfon-yl}-1-piperazinyl)carbonyl]-2-pyridinamine]"
3,≥ 31.6 µM,"Cc1ccc(C(=O)N2CCN(S(=O)(=O)c3cc(C(F)(F)F)ccc3C)C[C@@H]2C)cn1 [Example 59, (2S)-2-methyl-1-[(6-methyl-3-pyridinyl)carbonyl]-4-{[2-methyl-5-(trifluoromethyl)phenyl]sulfon-yl}piperazine]"
4,≥ 31.6 µM,"Cc1cncc(C(=O)N2CCN(S(=O)(=O)c3ccc(C(F)(F)F)cc3)C[C@@H]2C)c1 [Example 16, (2S)-2-Methyl-1-[(5-methyl-3-pyridinyl)carbonyl]-4-{[4-(trifluoromethyl)phenyl]sulfonyl}piperazine]"
5,≥ 31.6 µM,"Cc1ccc(C(=O)N2CCN(S(=O)(=O)c3ccc(C(F)(F)F)cc3)C[C@H]2C)cn1 [Example 19, (2R)-2-methyl-1-[(6-methyl-3-pyridinyl)carbonyl]-4-{[4-(trifluoromethyl)phenyl]sulfonyl}piperazine formic acid salt (1:1)]"
6,≥ 31.6 µM,"Cc1ccc(C(=O)N2CCN(S(=O)(=O)c3ccc(C#N)cc3)C[C@@H]2C)cn1 [Example 72, 4-({(3S)-3-methyl-4-[(6-methyl-3-pyridinyl)carbonyl]-1-piperazinyl}sulfonyl)benzo-nitrile]"
7,≥ 31.6 µM,"Cc1ccc(C(=O)N2CCN(S(=O)(=O)c3ccc(OC(F)(F)F)cc3)CC2)cn1 [Example 23, 1-[(6-Methyl-3-pyridinyl)carbonyl]-4-({4-[(trifluoromethyl)oxy]phenyl}sulfonyl)piperazine]"
8,≥ 31.6 µM,"Cc1ccc(C(=O)N2CCN(S(=O)(=O)c3ccc(OC(F)F)cc3)C[C@@H]2C)cn1 [Example 22, (2S)-4-({4-[(Difluoromethyl)oxy]phenyl}sulfonyl)-2-methyl-1-[(6-methyl-3-pyridinyl)carbonyl]piperazine]"
9,≥ 31.6 µM,"O=C(c1ccc(N2CCCC2)nc1)N1CCN(S(=O)(=O)c2ccc(C(F)(F)F)cc2)CC1 [Example 69, 1-{[6-(1-pyrrolidinyl)-3-pyridinyl]carbonyl}-4-{[4-(trifluoromethyl)phenyl]sulfon-yl}piperazine]"
10,≥ 31.6 µM,"Cc1ncccc1C(=O)N1CCN(S(=O)(=O)c2ccc(C(F)(F)F)cc2)C[C@H]1C [Example 20, (2R)-2-methyl-1-[(2-methyl-3-pyridinyl)carbonyl]-4-{[4-(trifluoromethyl)phenyl]sulfonyl}piperazine formic acid salt (1:1)]"
11,≥ 10 µM,"Cc1cc(N2CCOCC2)ncc1C(=O)N1CCN(S(=O)(=O)c2ccc(C(F)(F)F)cc2)C[C@@H]1C [Example 47, 4-{4-Methyl-5-[((2S)-2-methyl-4-{[4-(trifluoromethyl)phenyl]sulfonyl}-1-piperazinyl)carbonyl]-2-pyridinyl}morpholine hydrochloride]"
12,≥ 10 µM,"Cc1cc(C#N)ccc1S(=O)(=O)N1CCN(C(=O)c2ccc(Cl)nc2C)[C@@H](C)C1 [Example 25, 4-({(3S)-4-[(6-Chloro-2-methyl-3-pyridinyl)carbonyl]-3-methyl-1-piperazinyl}sulfonyl)-3-methylbenzonitrile]"
13,≥ 10 µM,"C[C@H]1CN(S(=O)(=O)c2ccc(C(F)(F)F)cc2)CCN1C(=O)c1ccc(N2CCOCC2)nc1 [Example 42, 4-{5-[((2S)-2-Methyl-4-{[4-(trifluoromethyl)phenyl]sulfonyl}-1-piperazinyl)carbonyl]-2-pyridinyl}morpholine hydrochloride]"
14,≥ 10 µM,"Cc1ccc(C(=O)N2CCN(S(=O)(=O)c3ccc(C(F)(F)F)cc3)C[C@@H]2C)c(C)n1 [Example 29, (2S)-1-[(2,6-Dimethyl-3-pyridinyl)carbonyl]-2-methyl-4-{[4-(trifluoromethyl)phenyl]sulfonyl}piperazine]"
15,≥ 10 µM,"Cc1cc(C#N)ccc1S(=O)(=O)N1CCN(C(=O)c2ccc(N(C)C)nc2C)[C@@H](C)C1 [Example 30, 4-[((3S)-4-{[6-(Dimethylamino)-2-methyl-3-pyridinyl]carbonyl}-3-methyl-1-piperazinyl)sulfonyl]-3-methylbenzonitrile hydrochloride]"
16,≥ 31.6 µM,"Cc1ccc(C(=O)N2CCN(S(=O)(=O)c3ccc(C#N)cc3C)C[C@@H]2C)c(C)n1 [Example 67, 4-({(3S)-4-[(2,6-dimethyl-3-pyridinyl)carbonyl]-3-methyl-1-piperazinyl}sulfonyl)-3-methylbenzonitrile]"
17,≥ 31.6 µM,"O=C(c1ccc(N2CCOCC2)nc1)N1CCN(S(=O)(=O)c2ccc(C(F)(F)F)cc2)CC1 [Example 6, 4-{5-[(4-{[4-(Trifluoromethyl)phenyl]sulfonyl}-1-piperazinyl)carbonyl]-2-pyridinyl}morpholine]"
18,≥ 31.6 µM,"COc1ncccc1C(=O)N1CCN(S(=O)(=O)c2ccc(C(F)(F)F)cc2)C[C@@H]1C [Example 15, (2S)-2-Methyl-1-{[2-(methyloxy)-3-pyridinyl]carbonyl}-4-{[4-(trifluoromethyl)phenyl]sulfonyl}piperazine]"
19,≥ 10 µM,"C[C@H]1CN(S(=O)(=O)c2ccc(C(F)(F)F)cc2)CCN1C(=O)c1ccc(N2CCC2)nc1 [Example 45, (2S)-1-{[6-(1-Azetidinyl)-3-pyridinyl]carbonyl}-2-methyl-4-{[4-(trifluoromethyl)phenyl]sulfonyl}piperazine hydrochloride]"
20,≥ 31.6 µM,"Cc1cc(C)c(C(=O)N2CCN(S(=O)(=O)c3ccc(C#N)cc3C)C[C@@H]2C)cn1 [Example 68, 4-({(3S)-4-[(4,6-dimethyl-3-pyridinyl)carbonyl]-3-methyl-1-piperazinyl}sulfonyl)-3-methylbenzonitrile]"
21,≥ 31.6 µM,"Cc1ccc(C(F)(F)F)cc1S(=O)(=O)N1CCN(C(=O)c2cccnc2C)CC1 [Example 62, 1-[(2-methyl-3-pyridinyl)carbonyl]-4-{[2-methyl-5-(trifluoromethyl)phenyl]sulfon-yl}piperazine]"
22,≥ 10 µM,"C[C@H]1CN(S(=O)(=O)c2ccc(C(F)(F)F)cc2)CCN1C(=O)c1cncc(Br)c1 [Example 28, (2S)-1-[(5-Bromo-3-pyridinyl)carbonyl]-2-methyl-4-{[4-(trifluoromethyl)phenyl]sulfonyl}piperazine]"
23,≥ 31.6 µM,"Cc1ccc(C(=O)N2CCN(S(=O)(=O)c3ccc(Cl)cc3)[C@@H](C)C2)cn1 [Example 8, (2S)-1-[(4-Chlorophenyl)sulfonyl]-2-methyl-4-[(6-methyl-3-pyridinyl)carbonyl]piperazine]"
24,≥ 10 µM,"Cc1nc(Cl)ccc1C(=O)N1CCN(S(=O)(=O)c2ccc(C(F)(F)F)cc2)C[C@@H]1C [Example 24, (2S)-1-[(6-Chloro-2-methyl-3-pyridinyl)carbonyl]-2-methyl-4-{[4-(trifluoromethyl)phenyl]sulfonyl}piperazine]"
25,≥ 31.6 µM,"Cc1ccc(C(=O)N2CCN(S(=O)(=O)c3ccc(OC(F)(F)F)cc3)C[C@@H]2C)cn1 [Example 21, (2S)-2-Methyl-1-[(6-methyl-3-pyridinyl)carbonyl]-4-({4-[(trifluoromethyl)oxy]phenyl}sulfonyl)piperazine]"
